From PubChem BioAssay (NCI)
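Results reflect a 48-hour exposure of cells in 96-well plates to compound at five concentrations. Abbreviation: GI50, concentration required for 50% inhibition of growth. TGI: concentration producing complete growth inhibition.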

What was measured:
Experiment in all cases: growth of human tumour cells (NCI), 48 h
[1] = test system: HCT-15 colon
[2] = test system: MALME-3M melanoma
[3] = test system: RXF 393 renal
[4] = test system: HOP-62 NSCLC
[5] = test system: SW-620 colon
[6] = test system: M14 melanoma
[7] = test system: HL-60(TB) leukemia
[8] = test system: LOX IMVI melanoma
[9] = test system: NCI-H23 lung
[10] = test system: HCT-116 colon
[11] = test system: SNB-75 CNS
[12] = test system: MDA-MB-435
[13] = test system: SF-268 CNS
[14] = test system: SF-295 CNS
[15] = test system: HCC-2998 colon
[16] = test system: MCF7 breast
[17] = test system: HOP-92 NSCLC
[18] = test system: SK-MEL-5 melanoma
[19] = test system: 786-0 renal
[20] = test system: OVCAR-3 ovarian
[21] = test system: CCRF-CEM leukemia
[22] = test system: A498 renal
[23] = test system: T-47D breast
[24] = test system: RPMI-8226 leukemia
[25] = test system: COLO 205 colon
[26] = test system: NCI/ADR-RES ovarian
[27] = test system: SF-539 CNS
[28] = test system: OVCAR-5 ovarian
[29] = test system: PC-3 prostate
[30] = test system: NCI-H522 lung
[31] = test system: BT-549 breast
[32] = test system: TK-10 renal
[33] = test system: UO-31 renal
[34] = test system: CAKI-1 renal
[35] = test system: UACC-257 melanoma
[36] = test system: NCI-H460 lung
[37] = test system: HS 578T breast
[38] = test system: MOLT-4 leukemia
[39] = test system: SK-OV-3 ovarian
[40] = test system: ACHN renal
[41] = test system: SNB-19 CNS
[42] = test system: DU-145 prostate
[43] = test system: SN12C renal
[44] = test system: MDA-MB-231 breast
[45] = test system: IGROV1 ovarian
[46] = test system: A549 NSCLC
[47] = test system: HT29 colon
[48] = test system: OVCAR-8 ovarian
[49] = test system: NCI-H226 lung
[50] = test system: KM12 colon
[51] = test system: SR leukemia
[52] = test system: U251 CNS
[53] = test system: UACC-62 melanoma
[54] = test system: K-562 leukemia
[55] = test system: SK-MEL-28 melanoma
[56] = test system: SK-MEL-2 melanoma
[57] = test system: OVCAR-4 ovarian

O=C1C=CC(=O)N1C1CCCCCCCCCCC1
GI50 [1]: 3.72 µM | TGI [1]: 14.9 µM | GI50 [2]: 5.07 µM | TGI [2]: 15.8 µM | GI50 [3]: 4.96 µM | TGI [3]: 17.1 µM | GI50 [4]: 31.5 µM | TGI [4]: > 100 µM | GI50 [5]: 2.59 µM | TGI [5]: 8.14 µM | GI50 [6]: 10.4 µM | TGI [6]: 25.8 µM | GI50 [7]: 5.25 µM | TGI [7]: 15.9 µM | GI50 [8]: 2.44 µM | TGI [8]: 6.72 µM | GI50 [9]: 19.1 µM | TGI [9]: 47.5 µM | GI50 [10]: 2.15 µM | TGI [10]: 4.94 µM | GI50 [11]: 12.7 µM | TGI [11]: > 79.9 µM | GI50 [12]: 13.7 µM | TGI [12]: 28.5 µM | GI50 [13]: 19.2 µM | TGI [13]: 51.8 µM | GI50 [14]: 78.7 µM | TGI [14]: > 100 µM | GI50 [15]: 28.9 µM | TGI [15]: > 73.8 µM | GI50 [16]: 3.58 µM | TGI [16]: 16.3 µM | GI50 [17]: 2.12 µM | TGI [17]: 7.72 µM | GI50 [18]: 16.4 µM | TGI [18]: 37 µM | GI50 [19]: 16.1 µM | TGI [19]: 29.7 µM | GI50 [20]: 6.4 µM | TGI [20]: 16.2 µM | GI50 [21]: 0.939 µM | TGI [21]: 4.93 µM | GI50 [22]: 16.5 µM | TGI [22]: > 93.7 µM | GI50 [23]: 3.08 µM | TGI [23]: 11.3 µM | GI50 [24]: 4.91 µM | TGI [24]: 34 µM | GI50 [25]: 2.78 µM | TGI [25]: 8.16 µM | GI50 [26]: 30.6 µM | TGI [26]: > 100 µM | GI50 [27]: 15.3 µM | TGI [27]: 29.4 µM | GI50 [28]: 19.8 µM | TGI [28]: 48.7 µM | GI50 [29]: 14.2 µM | TGI [29]: 30.9 µM | GI50 [30]: 1.7 µM | TGI [30]: 3.37 µM | GI50 [31]: 11.3 µM | TGI [31]: 24.6 µM | GI50 [32]: 3.35 µM | TGI [32]: 11.8 µM | GI50 [33]: 3.42 µM | TGI [33]: 14.2 µM | GI50 [34]: 5.95 µM | TGI [34]: 16.3 µM | GI50 [35]: 13 µM | TGI [35]: 27.2 µM | GI50 [36]: 81.1 µM | TGI [36]: > 100 µM | GI50 [37]: 17.8 µM | TGI [37]: > 65.3 µM | GI50 [38]: 3.28 µM | TGI [38]: 20.1 µM | GI50 [39]: > 65.5 µM | TGI [39]: > 100 µM | GI50 [40]: 2.73 µM | TGI [40]: 7.69 µM | GI50 [41]: > 84.6 µM | TGI [41]: > 100 µM | GI50 [42]: 13.9 µM | TGI [42]: 27.2 µM | GI50 [43]: 15.6 µM | TGI [43]: 33 µM | GI50 [44]: 14.5 µM | TGI [44]: 30 µM | GI50 [45]: 13.6 µM | TGI [45]: > 49.2 µM | GI50 [46]: 32.8 µM | TGI [46]: > 100 µM | GI50 [47]: 7.86 µM | TGI [47]: 26.4 µM | GI50 [48]: 13.9 µM | TGI [48]: 27.4 µM | GI50 [49]: 9.75 µM | TGI [49]: 24.3 µM | GI50 [50]: 41.2 µM | TGI [50]: > 100 µM | GI50 [51]: 2.23 µM | TGI [51]: 23.8 µM | GI50 [52]: 27 µM | TGI [52]: > 86.9 µM | GI50 [53]: 14.7 µM | TGI [53]: 28.5 µM | GI50 [54]: 2.93 µM | TGI [54]: 12.8 µM | GI50 [55]: 14.5 µM | TGI [55]: 28.3 µM | GI50 [56]: 16.4 µM | TGI [56]: 33.8 µM | GI50 [57]: 11.5 µM | TGI [57]: 24.2 µM
